Measurements taken from publication PMC3760497 (Nature, 2011).

Biological target: Get3 (Saccharomyces cerevisiae, UniProt Q12154, D57N)
Assay: mant-ATP chase titration, fluorescence
Format: binding
Conditions: 1 uM Get3(D57N), 1 uM mant-ATP; 50 mM HEPES pH 7.5, 100 mM NaCl, 5 mM MgCl2; competitive with mant-ATP

Chain of Get3 (Q12154 whole entry D57N): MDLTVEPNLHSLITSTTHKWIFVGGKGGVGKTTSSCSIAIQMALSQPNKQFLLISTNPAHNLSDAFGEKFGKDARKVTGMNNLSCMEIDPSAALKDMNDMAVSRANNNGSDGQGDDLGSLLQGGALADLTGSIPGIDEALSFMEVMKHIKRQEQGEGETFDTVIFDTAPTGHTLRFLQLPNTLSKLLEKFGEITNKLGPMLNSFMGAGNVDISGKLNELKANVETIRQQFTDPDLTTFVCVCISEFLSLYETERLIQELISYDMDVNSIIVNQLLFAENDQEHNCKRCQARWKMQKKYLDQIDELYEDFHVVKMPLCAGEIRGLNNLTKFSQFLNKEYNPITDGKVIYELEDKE

Nc1ncnc2c1ncn2[C@@H]1O[C@H](COP(=O)(O)OP(=O)(O)O)[C@@H](O)[C@H]1O [ADP]
dissociation constant: ADP (which binds weakly to substrate-free Get3; Sup. Fig. S18)
